Where no end group is shown, it is not given here.
Columns and labels:
Cyt b559 in PSII = experiment: Redox forms of Cyt b559 by stepwise reductive titration (absorption difference spectroscopy), reconstituted NaCl-washed PSII membranes; type: biochemical, spinach
[1] = test system: OEC (Mn4CaO5 cluster) in PSII; experiment: Light-induced S2/S1 FTIR difference spectroscopy; type: biochemical, spinach; conditions: peptide:PSII 200:1, pH 6.0, 5 mM CaCl2, 5 mM NaCl, 10 °C, 1800–1200 cm^-1
PSII = experiment: Oxygen-evolving activity of reconstituted PSII membranes (Clark-type oxygen electrode); type: biochemical, spinach; conditions: NaCl-washed PSII membranes, peptide:PSII 50:1 to 200:1, 5 mM CaCl2 and 5 mM NaCl, pH 6.5, 0.4 mM DCBQ; membranes without reconstitution = 100% (251 ~ 317 μmol O2 mg Chl^-1 h^-1); n = 3
Protocol: PSII oxygen-evolving activity was measured in the presence of 5 mM CaCl2 and 5 mM NaCl, and the rate of oxygen-evolution of PSII membranes without reconstitution was set at 100% (251 ~ 317 μmol O2 mg Chl^−1 h^−1 in independent experiments); n = 3, error bars = SEM. […] Oxygen-evolving activity here was measured in the presence of 5 mM CaCl2 and 5 mM NaCl, and the rate of oxygen-evolution for the PSII membranes without reconstitution (the control) was set at 100% (261 μmol O2 mg Chl^−1 h^−1).
PSII membranes, isolated from spinach leaves[56], were treated for 30 min with the buffer containing 1.5 M NaCl on ice to remove PsbP and PsbQ. […] In the control, MES buffer, without any peptide fragments, was used. After incubation for 1 h on ice, the reconstituted PSII samples were carried forward to determine the state of their redox forms of Cyt b559, oxygen-evolving activity, FTIR analysis and TL measurements. Where indicated, PSII samples were washed once, before the analysis, with buffer (25 mM MES-NaOH, pH 6.5, 5 mM NaCl, 5 mM CaCl2, 0.4 M sucrose). The oxygen-evolving activity of each PSII membrane sample was measured in this same buffer using a Clark-type oxygen-electrode (Hansatech, UK) in the presence of 0.4 mM 2,6-dichloro-p-benzoquinone (DCBQ) as an electron acceptor.

[2] = target: PsbE protein, the α subunit of Cytochrome b559 (spinach (endogenous in PSII membranes from spinach leaves)) (UniProt P69383)

content of the HP form of Cyt b559 in NaCl-washed PSII membranes after reconstitution at 4:1 (PsbP:PSII); about 34% without reconstitution [2]	Substance	Relative content of the HP form of Cyt b559 (Cyt b559 in PSII; NaCl-washed PSII membranes reconstituted with PsbP proteins at 4:1 or peptides at 200:1 (to PSII), 1 h on ice, 25 mM MES-NaOH pH 6.5, 5 mM NaCl, 5 mM CaCl2, 0.4 M sucrose, 559 nm, total Cyt b559 = 100%, n = 3 (controls: intact 59.3, NaCl-washed 33.7))	Relative content of the LP form of Cyt b559 (Cyt b559 in PSII; NaCl-washed PSII membranes reconstituted with PsbP proteins at 4:1 or peptides at 200:1 (to PSII), 1 h on ice, pH 6.5, total Cyt b559 = 100%, n = 3 (controls: intact 8.7, NaCl-washed 10.4))	Relative content of the IP form of Cyt b559 (Cyt b559 in PSII; NaCl-washed PSII membranes reconstituted with PsbP proteins at 4:1 or peptides at 200:1 (to PSII), 1 h on ice, pH 6.5, total Cyt b559 = 100%, n = 3 (controls: intact 32.0, NaCl-washed 55.9))	Restoration of HP Cyt b559 (in words) (Cyt b559 in PSII; reconstituted NaCl-washed PSII membranes, pH 6.5)	S2/S1 FTIR spectral intensity [1]	Rate of oxygen evolution (in words) (PSII)
	pN15-∆A^1: pN15 lacking its N-terminal Ala^1 (YGEAANVFGKPKKN-NH2; UniProt P12302 83-96, looked up, fragment)	38.2%	13.6%	48.2%	This effect was not observed	moderate inhibitory effect	none of these mutated pN15 fragments showed any inhibitory effect on oxygen evolution
58%	recombinant PsbP-WT protein from Spinacia oleracea (from UniProt P12302 82-267) (natural protein)						
